Experiments:
[1] = tested on: 191 types of kinases excluding Syk; experiment: Selectivity of kinase inhibition (Profiler Pro kits); type: biochemical; details: test compound 100 nM; 191 kinases excluding Syk
Procedure: The concentrations of test compounds were adjusted to 100 nM. The test compounds were examined using Profiler Pro kits (Caliper) in terms of activity against each of 191 types of kinases excluding Syk.

[2] = biological target: T1, glutathione S-transferase (GST)-linked full-length human Syk protein (Homo sapiens, UniProt P43405); experiment: Syk enzyme assay; type: biochemical; details: 0.83 nM Syk, time-resolved fluorescence; read-out: IC50 of Syk-inhibitory activity
T1 construct: glutathione S-transferase (GST)-linked full-length human Syk protein; purchased Carna Biosciences; host or cells: Baculovirus expression system
Method in brief: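 Phosphotyrosine on a biotin-peptide substrate (0.5 μM) was read by time-resolved fluorescence at 615 and 665 nm with Eu-anti-pTyr antibody and APC-streptavidin after 1 h EDTA stop.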

[3] = tested on: THP-1 cells (TNFα secretion on human IgG-coated plate); experiment: TNFα generation assay; type: cell-based; details: IFN-γ differentiated THP-1 cells, 7 hours, AlphaLISA, read-out: IC50 of TNFα generation inhibitory activity
Method in brief: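 THP-1 cells were differentiated with 10 ng/ml IFN-γ for 2 days, then preincubated with compound for 30 min at room temperature. They were then plated at 5×10^4 cells/well on plates coated with human IgG (10 μg/ml). TNFα secreted over 7 h of culture was quantified by AlphaLISA.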

[4] = tested on: mouse thrombocytopenia induced by anti-mouse CD41 antibody; experiment: Mouse thrombocytopenia model; type: in vivo; details: Platelet, female BALB/c mice, 50 mg/kg 1 hour before anti-CD41 antibody, blood sampling 4 hours after antibody, read-out: improvement of platelet count compared with the control group
Procedure: Test compounds were tested to examine effects upon mouse thrombocytopenia. Each test compound (50 mg/kg) was administered to 5- to 7-week-old female BALB/c mice (Charles River Laboratories Japan, Inc.). One hour thereafter, an anti-mouse CD41 ([…]) antibody (SCB) (1 μg (200 μl)) was intravenously administered to each mouse so as to induce thrombocytopenia. Four hours after administration of the anti-CD41 antibody, blood sampling from the postcava was performed. The platelet count was determined using an automated hematology analyzer.

[5] = tested on: THP-1 cells (phagocytosis of opsonized Escherichia coli); experiment: Antibody-dependent phagocytosis assay; type: cell-based; details: Homo sapiens; IFNγ differentiated THP-1 cells, opsonized pHrodo Escherichia coli, 3 hours; read-out: IC50 upon phagocytosis inhibition
Method in brief: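 THP-1 cells were differentiated to macrophage-like cells with 10 ng/ml IFNγ for 2 days, then treated with test compound for 30 min at room temperature. pHrodo-labeled E. coli opsonized with anti-E. coli antibody were added for 3 h at 37° C. Phagocytosis by viable (Calcein AM-positive) cells was quantified by imaging.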

[6] = tested on: rat type II collagen arthritis; experiment: Rat type II collagen-induced arthritis; type: in vivo; details: female Lewis rats, oral administration 10 mg/kg/day, Day 7 to Day 20 once daily, Student's t-test
Procedure: The compounds were tested to examine effects upon rat type II collagen arthritis. Equivalent volumes of 0.05 mol/L acetic acid in which a 3 mg/mL bovine type II collagen solution (Collagen Gijutsu Kenshu-Kai) had been dissolved and Freund's incomplete adjuvant (Wako Pure Chemical Industries, Ltd.) were mixed to prepare an emulsion. A portion of the emulsion (0.5 ml) was intradermally injected into the tail bases of 6- to 8-week-old female Lewis rats (Charles River Laboratories Japan, Inc.) (Day 0). Each rat was subjected to the same treatment on Day 7 after the initial inoculation so as to induce arthritis. Each test compound was orally administered from Day 7 to Day 20 once daily. At a given time during the period from Day 7 to Day 21, the rat hindlimb volume was determined using a plethysmometer (UGO BASILE), and the result was designated as an arthritis index.

- number of kinases other than Syk with kinase inhibitory rate of 75% or more [1]: 8 types of kinases
- IC50 [2]: 10 to 50 nM
- IC50 [3]: 130 to 200 nM
- IC50 [5]: 1000 to 3000 nM
Compound: C[C@H](N)[C@H](Nc1nc(Nc2cnc(N3CCOCC3)c(F)c2)c(C(N)=O)cc1F)C1CC1 [Example 2-76, 6-(((1R,2S)-2-amino-1-cyclopropylpropyl)amino)-5-fluoro-2-((5-fluoro-6-morpholinopyridin-3-yl)amino)nicotinamide]
- change in vivo at 50 mg/kg [4]: ≥ 50%
- hindlimb swelling on Day 20 compared with the control group [6]: significantly inhibited hindlimb swelling

Reference: patent US9051310B2, “Nicotinamide derivative or salt thereof” (FUJIFILM Corporation, priority 2011, dated 2015)
